Experimental data taken from US20260242419A1, “A CYCLIC PEPTIDE FOR TRAPPING INTERLEUKIN-1 BETA” (Merck Sharp & Dohme LLC, priority 2023, published 2026).
Starred links: 1 amine or outer side, 2 acyl side, 3 side chain; linkers in the order of their positions; H or OH if unused. Non-standard residues stand in square brackets, D forms with d. Residues, ends and D or L forms follow the SMILES beside them. *: point of attachment. Phe(4-(5-CO2H-2-pyrimidyl)) = N[C@@H](Cc1ccc(-c2ncc(C(=O)O)cn2)cc1)C(=O)O; Phe(4-(4-Ac-piperazinyl)) = CC(=O)N1CCN(c2ccc(C[C@H](N)C(=O)O)cc2)CC1; dPro(4R-(4-pyridylmethyl)) = O=C(O)[C@H]1C[C@@H](Cc2ccncc2)CN1; Ala(piperidin-4-yl) = O=C([C@H](CC1CCN([*:3])CC1)N[*:1])[*:2]; Trp(βS-Me,4-F) = C[C@@H](c1c[nH]c2cccc(F)c12)[C@H](N)C(=O)O; X15 = O=C([C@H]1[C@@H](Cc2ccc(-c3ccnnc3)cc2)CCN1[*:1])[*:2]; Bip(4'-CONH2) = NC(=O)c1ccc(-c2ccc(C[C@H](N)C(=O)O)cc2)cc1; Bip(4'-COOH) = N[C@@H](Cc1ccc(-c2ccc(C(=O)O)cc2)cc1)C(=O)O; Ala(1-bicyclo(1.1.1)pentyl) = N[C@@H](CC12CC(C1)C2)C(=O)O; dPro(4R-Bzl(4-F)) = O=C(O)[C@H]1C[C@@H](Cc2ccc(F)cc2)CN1; X29 = O=C([C@H]1[C@@H](Cc2ccc(Cl)cc2)CCN1[*:1])[*:2]; Ala(pyrimidin-5-yl) = N[C@@H](Cc1cncnc1)C(=O)O; Phe(4-COOH) = N[C@@H](Cc1ccc(C(=O)O)cc1)C(=O)O; Ala(4-Pyridazinyl) = N[C@@H](Cc1ccnnc1)C(=O)O; Bip = N[C@@H](Cc1ccc(-c2ccccc2)cc1)C(=O)O; Pro(cis-4-F) = O=C(O)[C@@H]1C[C@H](F)CN1; Ala(4-THP) = N[C@@H](CC1CCOCC1)C(=O)O; AEF = NCCOc1ccc(C[C@H](N)C(=O)O)cc1; Dap(CONH2) = NC(=O)NC[C@H](N)C(=O)O; d(αMeD) = C[C@@](N)(CC(=O)O)C(=O)O; Pyrazinecarbonyl = O=C(c1cnccn1)*; 4Pal = N[C@@H](Cc1ccncc1)C(=O)O; dOrn = NCCC[C@@H](N)C(=O)O; Dab = NCC[C@H](N)C(=O)O; Aib = CC(C)(N)C(=O)O; Piv = CC(C)(C)C(=O)*

target: T1, IL-1β (Homo sapiens, UniProt P01584); experiment: IL-6 assay in MRC5 cells: inhibition of IL-1β induced IL-6 secretion (AlphaLISA); format: cell-based; conditions: inhibition of IL-1β induced IL-6 secretion in MRC5 cells; compound pre-incubated 1 hour with recombinant human IL-1β; read-out: MRC5 IC50
T1 construct: purchased BioLegend 579404
T1 sequence (P01584 117-269): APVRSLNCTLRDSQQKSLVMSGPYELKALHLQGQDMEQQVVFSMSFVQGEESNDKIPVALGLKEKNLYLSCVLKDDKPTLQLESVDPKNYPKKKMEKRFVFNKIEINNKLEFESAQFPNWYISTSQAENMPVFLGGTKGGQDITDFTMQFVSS
In short: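 Compound was pre-incubated 1 h at ambient temperature with recombinant human IL-1β at 2λ EC80 before adding human lung fibroblast MRC5 cells (3000/well) in EMEM with 0.025% BSA. After overnight culture at 37 °C, 5% CO2, secreted IL-6 in conditioned medium was measured by AlphaLISA; IC50 from 4-parameter logistic fits.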

IC50 | Compound
0.016 nM | C[C@@H](c1c[nH]c2cccc(F)c12)[C@@H]1NC(=O)[C@@H]2C[C@H](F)CN2C(=O)CNC(=O)[C@H](Cc2ccc(C(=O)O)cc2)NC(=O)[C@H](Cc2ccncc2)NC(=O)[C@H](Cc2ccc(OCCNC(=O)c3cnccn3)cc2)NC(=O)[C@H]2C[C@@H](Cc3ccncc3)CN2C(=O)CNC(=O)[C@H](CCN)NC(=O)[C@H](CCC(N)=O)NC(=O)[C@H](Cc2cncnc2)NC(=O)C(C)(C)NC(=O)[C@H](Cc2c[nH]c3ccccc23)NC(=O)[C@H](CO)NC(=O)C(C)(C)NC1=O [Example 303] (cyclo([AEF](Pyrazinecarbonyl)[4Pal][Phe(4-COOH)]G[Pro(cis-4-F)][Trp(βS-Me,4-F)][Aib]SW[Aib][Ala(pyrimidin-5-yl)]Q[Dab]G[dPro(4R-(4-pyridylmethyl))]))
0.027 nM | C[C@@H](c1c[nH]c2cccc(F)c12)[C@@H]1NC(=O)[C@@H]2C[C@H](F)CN2C(=O)CNC(=O)[C@H](Cc2ccc(C(=O)O)cc2)NC(=O)[C@H](Cc2ccncc2)NC(=O)[C@H](Cc2ccc(-c3ccccc3)cc2)NC(=O)[C@H]2C[C@@H](Cc3ccncc3)CN2C(=O)CNC(=O)[C@H](CNC(N)=O)NC(=O)[C@H](CCC(N)=O)NC(=O)[C@@H](CCCN)NC(=O)[C@@](C)(CC(=O)O)NC(=O)[C@H](Cc2c[nH]c3ccccc23)NC(=O)[C@H](CO)NC(=O)C(C)(C)NC1=O [Example 245] (cyclo([Bip][4Pal][Phe(4-COOH)]G[Pro(cis-4-F)][Trp(βS-Me,4-F)][Aib]SW[d(αMeD)][dOrn]Q[Dap(CONH2)]G[dPro(4R-(4-pyridylmethyl))]))
0.013 nM | C[C@@H](c1c[nH]c2cccc(F)c12)[C@@H]1NC(=O)[C@@H]2C[C@H](F)CN2C(=O)CNC(=O)[C@H](Cc2ccc(C(=O)O)cc2)NC(=O)[C@H](Cc2ccncc2)NC(=O)[C@H](Cc2ccc(-c3ccc(C(N)=O)cc3)cc2)NC(=O)[C@H]2C[C@@H](Cc3ccncc3)CN2C(=O)CNC(=O)[C@H](CCN)NC(=O)[C@H](CCC(N)=O)NC(=O)[C@H](CC2CCOCC2)NC(=O)[C@@](C)(CC(=O)O)NC(=O)[C@H](Cc2c[nH]c3ccccc23)NC(=O)[C@H](CO)NC(=O)C(C)(C)NC1=O [Example 296] (cyclo([Bip(4'-CONH2)][4Pal][Phe(4-COOH)]G[Pro(cis-4-F)][Trp(βS-Me,4-F)][Aib]SW[d(αMeD)][Ala(4-THP)]Q[Dab]G[dPro(4R-(4-pyridylmethyl))]))
0.013 nM | C[C@@H](c1c[nH]c2cccc(F)c12)[C@@H]1NC(=O)[C@@H]2C[C@H](F)CN2C(=O)CNC(=O)[C@H](Cc2ccc(C(=O)O)cc2)NC(=O)[C@H](Cc2ccncc2)NC(=O)[C@H](Cc2ccc(OCCNC(=O)C(C)(C)C)cc2)NC(=O)[C@H]2C[C@@H](Cc3ccncc3)CN2C(=O)CNC(=O)[C@H](CCN)NC(=O)[C@H](CCC(N)=O)NC(=O)[C@H](Cc2cncnc2)NC(=O)C(C)(C)NC(=O)[C@H](Cc2c[nH]c3ccccc23)NC(=O)[C@H](CO)NC(=O)C(C)(C)NC1=O [Example 300] (cyclo([AEF](Piv)[4Pal][Phe(4-COOH)]G[Pro(cis-4-F)][Trp(βS-Me,4-F)][Aib]SW[Aib][Ala(pyrimidin-5-yl)]Q[Dab]G[dPro(4R-(4-pyridylmethyl))]))

same assay, conditions: inhibition of IL-1β induced IL-6 secretion in MRC5 cells; read-out: MRC5 IC50

IC50 | Compound
0.033 nM | CC(=O)N1CCN(c2ccc(C[C@@H]3NC(=O)[C@H]4C[C@@H](Cc5ccc(F)cc5)CN4C(=O)CNC(=O)[C@H](CCN)NC(=O)[C@H](CCC(N)=O)NC(=O)[C@H](Cc4cncnc4)NC(=O)C(C)(C)NC(=O)[C@H](Cc4c[nH]c5ccccc45)NC(=O)[C@H](CCC(=O)O)NC(=O)C(C)(C)NC(=O)[C@H]([C@@H](C)c4c[nH]c5cccc(F)c45)NC(=O)[C@@H]4C[C@H](F)CN4C(=O)CNC(=O)[C@H](Cc4ccc(C(=O)O)cc4)NC(=O)[C@H](Cc4ccncc4)NC3=O)cc2)CC1 [Example 37] (cyclo([Phe(4-(4-Ac-piperazinyl))][4Pal][Phe(4-COOH)]G[Pro(cis-4-F)][Trp(βS-Me,4-F)][Aib]EW[Aib][Ala(pyrimidin-5-yl)]Q[Dab]G[dPro(4R-Bzl(4-F))]))
0.083 nM | C[C@@H]1NC(=O)C(C)(C)NC(=O)[C@H]([C@@H](C)c2c[nH]c3cccc(F)c23)NC(=O)[C@@H]2C[C@H](F)CN2C(=O)CNC(=O)[C@H](Cc2ccc(C(=O)O)cc2)NC(=O)[C@H](CC23CC(C2)C3)NC(=O)[C@H](Cc2ccc(-c3ncc(C(=O)O)cn3)cc2)NC(=O)[C@H]2C[C@@H](Cc3ccncc3)CN2C(=O)CNC(=O)[C@H](CCN)NC(=O)[C@H](CCC(N)=O)NC(=O)[C@H](Cc2ccncc2)NC(=O)C(C)(C)NC(=O)[C@H](Cc2c[nH]c3ccccc23)NC1=O [Example 88] (cyclo([Phe(4-(5-CO2H-2-pyrimidyl))][Ala(1-bicyclo(1.1.1)pentyl)][Phe(4-COOH)]G[Pro(cis-4-F)][Trp(βS-Me,4-F)][Aib]AW[Aib][4Pal]Q[Dab]G[dPro(4R-(4-pyridylmethyl))]))
0.047 nM | CC(=O)NCCOc1ccc(C[C@@H]2NC(=O)[C@H]3C[C@@H](Cc4ccncc4)CN3C(=O)CNC(=O)[C@H](CCN)NC(=O)[C@H](CCC(N)=O)NC(=O)[C@H](Cc3cncnc3)NC(=O)C(C)(C)NC(=O)[C@H](Cc3c[nH]c4ccccc34)NC(=O)[C@H](CCC(=O)O)NC(=O)C(C)(C)NC(=O)[C@H]([C@@H](C)c3c[nH]c4cccc(F)c34)NC(=O)[C@@H]3C[C@H](F)CN3C(=O)CNC(=O)[C@H](Cc3ccc(C(=O)O)cc3)NC(=O)[C@H](Cc3ccncc3)NC2=O)cc1 [Example 49] (cyclo([AEF](Ac)[4Pal][Phe(4-COOH)]G[Pro(cis-4-F)][Trp(βS-Me,4-F)][Aib]EW[Aib][Ala(pyrimidin-5-yl)]Q[Dab]G[dPro(4R-(4-pyridylmethyl))]))
0.023 nM | C[C@@H](c1c[nH]c2cccc(F)c12)[C@@H]1NC(=O)[C@@H]2C[C@H](F)CN2C(=O)CNC(=O)[C@H](Cc2ccc(C(=O)O)cc2)NC(=O)[C@H](Cc2ccncc2)NC(=O)[C@H](Cc2ccc(-c3ccc(C(=O)O)cc3)cc2)NC(=O)[C@H]2C[C@@H](Cc3ccc(F)cc3)CN2C(=O)CNC(=O)[C@H](CCN)NC(=O)[C@H](CCC(N)=O)NC(=O)[C@H](Cc2ccnnc2)NC(=O)C(C)(C)NC(=O)[C@H](Cc2c[nH]c3ccccc23)NC(=O)[C@H](CCC(=O)O)NC(=O)C(C)(C)NC1=O [Example 115] (cyclo([Bip(4'-COOH)][4Pal][Phe(4-COOH)]G[Pro(cis-4-F)][Trp(βS-Me,4-F)][Aib]EW[Aib][Ala(4-Pyridazinyl)]Q[Dab]G[dPro(4R-Bzl(4-F))]))
0.019 nM | C[C@@H](c1c[nH]c2cccc(F)c12)[C@@H]1NC(=O)[C@@H]2C[C@H](F)CN2C(=O)CNC(=O)[C@H](Cc2ccc(C(=O)O)cc2)NC(=O)[C@H](Cc2ccncc2)NC(=O)[C@H](Cc2ccc(-c3ccc(C(=O)O)cc3)cc2)NC(=O)[C@H]2C[C@@H](Cc3ccncc3)CN2C(=O)CNC(=O)[C@H](CCN)NC(=O)[C@H](CCC(N)=O)NC(=O)[C@H](CC2CCOCC2)NC(=O)C(C)(C)NC(=O)[C@H](Cc2c[nH]c3ccccc23)NC(=O)[C@H](CO)NC(=O)C(C)(C)NC1=O [Example 211] (cyclo([Bip(4'-COOH)][4Pal][Phe(4-COOH)]G[Pro(cis-4-F)][Trp(βS-Me,4-F)][Aib]SW[Aib][Ala(4-THP)]Q[Dab]G[dPro(4R-(4-pyridylmethyl))]))
0.027 nM | C[C@@H](c1c[nH]c2cccc(F)c12)[C@@H]1NC(=O)[C@@H]2C[C@H](F)CN2C(=O)CNC(=O)[C@H](Cc2ccc(C(=O)O)cc2)NC(=O)[C@H](CC23CC(C2)C3)NC(=O)[C@H](Cc2ccc(-c3ccc(C(=O)O)cc3)cc2)NC(=O)[C@H]2C[C@@H](Cc3ccncc3)CN2C(=O)CNC(=O)[C@H](CO)NC(=O)[C@H](CCC(N)=O)NC(=O)[C@H](CC2CCNCC2)NC(=O)C(C)(C)NC(=O)[C@H](Cc2c[nH]c3ccccc23)NC(=O)[C@H](CO)NC(=O)C(C)(C)NC1=O [Example 180] (cyclo([Bip(4'-COOH)][Ala(1-bicyclo(1.1.1)pentyl)][Phe(4-COOH)]G[Pro(cis-4-F)][Trp(βS-Me,4-F)][Aib]SW[Aib][Ala(piperidin-4-yl)]QSG[dPro(4R-(4-pyridylmethyl))]))
0.008 nM | C[C@@H](c1c[nH]c2cccc(F)c12)[C@@H]1NC(=O)[C@@H]2C[C@H](F)CN2C(=O)CNC(=O)[C@H](Cc2ccc(C(=O)O)cc2)NC(=O)[C@H](Cc2ccncc2)NC(=O)[C@H](Cc2ccc(-c3ccc(C(=O)O)cc3)cc2)NC(=O)[C@H]2[C@@H](Cc3ccc(Cl)cc3)CCN2C(=O)CNC(=O)[C@H](CCN)NC(=O)[C@H](CCC(N)=O)NC(=O)[C@H](Cc2cncnc2)NC(=O)[C@@](C)(CC(=O)O)NC(=O)[C@H](Cc2c[nH]c3ccccc23)NC(=O)[C@H](CO)NC(=O)C(C)(C)NC1=O [Example 330] (cyclo([Bip(4'-COOH)][4Pal][Phe(4-COOH)]G[Pro(cis-4-F)][Trp(βS-Me,4-F)][Aib]SW[d(αMeD)][Ala(pyrimidin-5-yl)]Q[Dab]G[X29]))
0.037 nM | C[C@@H](c1c[nH]c2cccc(F)c12)[C@@H]1NC(=O)[C@@H]2C[C@H](F)CN2C(=O)CNC(=O)[C@H](Cc2ccc(C(=O)O)cc2)NC(=O)[C@H](Cc2ccncc2)NC(=O)[C@H](Cc2ccc(-c3ccc(C(=O)O)cc3)cc2)NC(=O)[C@H]2[C@@H](Cc3ccc(-c4ccnnc4)cc3)CCN2C(=O)CNC(=O)[C@H](CCN)NC(=O)[C@H](CCC(N)=O)NC(=O)[C@H](Cc2cncnc2)NC(=O)C(C)(C)NC(=O)[C@H](Cc2c[nH]c3ccccc23)NC(=O)[C@H](CCC(=O)O)NC(=O)C(C)(C)NC1=O [Example 58] (cyclo([Bip(4'-COOH)][4Pal][Phe(4-COOH)]G[Pro(cis-4-F)][Trp(βS-Me,4-F)][Aib]EW[Aib][Ala(pyrimidin-5-yl)]Q[Dab]G[X15]))
